Reference: patent publication US12098148B2, “Therapeutic compounds” (C4X Discovery Limited, priority 2018, dated 2024)
Where two headings read alike, the source gives them in different places.

Key:
[1] = target: human KEAP1 (N-term, residues 321-609) (Homo sapiens, UniProt Q14145); assay: biochemical;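 note: fluorescence polarization competition assay of Kelch domain binding to NRF2, 12-point 1:3 dilution series from 10 µM, read after 1 h at room temperature, floor 10 nM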
[2] = test system: NQO1 mRNA in BEAS-2B cells; assay: Beas2B NQO1 mRNA cell based assay; design: species or system human; details: Homo sapiens, 24 h compound treatment, increase in NQO1 mRNA vs vehicle (0.1% DMSO), read-out: EC50
Outline: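 BEAS-2B human bronchial epithelial cells exposed to compound for 24 h at 37 °C, 5% CO2. NQO1 mRNA measured by one-step TaqMan RT-qPCR on unpurified lysates, normalized to β-actin; relative expression by ΔΔCT method.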

human KEAP1 (N-term, residues 321-609), sequence (Q14145 321-609): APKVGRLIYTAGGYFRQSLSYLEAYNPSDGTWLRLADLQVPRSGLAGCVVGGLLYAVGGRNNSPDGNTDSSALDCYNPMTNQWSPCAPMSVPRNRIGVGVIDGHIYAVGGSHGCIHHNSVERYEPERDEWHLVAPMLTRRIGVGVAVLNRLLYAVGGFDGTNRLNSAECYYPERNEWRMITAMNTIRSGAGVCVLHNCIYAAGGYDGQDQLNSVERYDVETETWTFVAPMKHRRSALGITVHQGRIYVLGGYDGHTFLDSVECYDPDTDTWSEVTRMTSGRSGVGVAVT

Row | Structure (SMILES) | IC50 [1] | EC50 ([2]; BEAS-2B, 24 h) | EC50 [2]
1 | O=C(O)[C@H]1CCCC[C@H]1C(=O)N1CCc2c(Cl)ccc(OCc3nsc4ccccc34)c2[C@H]1CN1CCCC1=O [Example 68, (1S,2R)-2-((S)-8-(Benzo[d]isothiazol-3-ylmethoxy)-5-chloro-1-((2-oxopyrrolidin-1-yl)methyl)-1,2,3,4-tetrahydroisoquinoline-2-carbonyl)cyclohexane-1-carboxylic acid] | 8.4 nM | 32 nM | 
2 | O=C(O)[C@H]1CCCC[C@H]1C(=O)N1CCc2c(Cl)ccc(OCc3ccccn3)c2[C@H]1CN1CCCC1=O [Example 69, (1S,2R)-2-((S)-5-chloro-1-((2-oxopyrrolidin-1-yl)methyl)-8-(pyridin-2-ylmethoxy)-1,2,3,4-tetrahydroisoquinoline-2-carbonyl) cyclohexane-1-carboxylic acid] | 6.9 nM | 140 nM | 
3 | Cc1cc(COc2ccc(Cl)c3c2[C@@H](CN2CCCC2=O)N(C(=O)[C@@H]2CCCC[C@@H]2C(=O)O)CC3)ns1 [Example 70, (1S,2R)-2-((S)-5-Chloro-8-((5-methylisothiazol-3-yl)methoxy)-1-((2-oxopyrrolidin-1-yl)methyl)-1,2,3,4-tetrahydroisoquinoline-2-carbonyl) cyclohexane-1-carboxylic acid] | 5.9 nM | 55 nM | 
4 | O=C(O)[C@H]1CCCC[C@H]1C(=O)N1CCc2c(Cl)ccc(OCc3ccsn3)c2[C@H]1CN1CCCC1=O [Example 71, (1S,2R)-2-((S)-5-Chloro-8-isothiazol-3-ylmethoxy)-1-((2-oxopyrrolidin-1-ylmethyl)-1,2,3,4-tetrahydroisoquinoline-2-carbonyl) cyclohexane-1-carboxylic acid] | 6.5 nM | 78 nM | 
5 | CC(C)n1cc(COc2ccc(Br)c3c2[C@@H](CN2C[C@H](C)CC2=O)N(C(=O)[C@@H]2CCCC[C@@H]2C(=O)O)CC3)nn1 [Example 75, (1S,2R)-2-((S)-5-Bromo-8-((1-isopropyl-1H-1,2,3-triazol-4-yl)methoxy)-1-(((R)-4-methyl-2-oxopyrrolidin-1-yl)methyl)-1,2,3,4-tetrahydroisoquinoline-2-carbonyl) cyclohexane-1-carboxylic acid] | 6.5 nM | 8.3 nM | 
6 | CC(C)n1cc(COc2ccc(Br)c3c2[C@@H](CN2CC4(CC4)CC2=O)N(C(=O)[C@@H]2CCCC[C@@H]2C(=O)O)CC3)nn1 [Example 76, (1S,2R)-2-((S)-5-bromo-8-((1-isopropyl-1H-1,2,3-triazol-4-yl)methoxy)-1-((6-oxo-5-azaspiro[2.4]heptan-5-yl)methyl)-1,2,3,4-tetrahydroisoquinoline-2-carbonyl) cyclohexane-1-carboxylic acid] | 6.7 nM | 2.5 nM | 
7 | CC(C)n1cc(COc2ccc(Br)c3c2[C@@H](CN2C[C@@H](C)CC2=O)N(C(=O)[C@@H]2CCCC[C@@H]2C(=O)O)CC3)nn1 [Example 77, (1S,2R)-2-((S)-5-Bromo-8-((1-isopropyl-1H-1,2,3-triazol-4-yl)methoxy)-1-(((S)-4-methyl-2-oxopyrrolidin-1-yl)methyl)-1,2,3,4-tetrahydroisoquinoline-2-carbonyl) cyclohexane-1-carboxylic acid] | 7.8 nM | 6.7 nM | 
8 | O=C(O)[C@H]1CCCC[C@H]1C(=O)N1CCc2c(Cl)ccc(OCc3cccnc3)c2[C@H]1CN1CCCC1=O [Example 78, (1S,2R)-2-((S)-5-Chloro-1-((2-oxopyrrolidin-1-yl)methyl)-8-(pyridin-3-ylmethoxy)-1,2,3,4-tetrahydroisoquinoline-2-carbonyl) cyclohexane-1-carboxylic acid] | 7.8 nM | 57 nM | 
9 | CCn1nnc(COc2ccc(Cl)c3c2[C@@H](CN2CCCC2=O)N(C(=O)[C@@H]2CCCC[C@@H]2C(=O)O)CC3)c1C(F)F [Example 79, (1S,2R)-2-((S)-5-Chloro-8-((5-(difluoromethyl)-1-ethyl-1H-1,2,3-triazol-4-yl)methoxy)-1-((2-oxopyrrolidin-1-yl)methyl)-1,2,3,4-tetrahydroisoquinoline-2-carbonyl)cyclohexane-1-carboxylic acid] | 6.7 nM | 1.2 nM | 
10 | C[C@H](CC(=O)O)C(=O)N1CCc2c(Cl)ccc(OCc3noc4ccccc34)c2[C@H]1CN1CCCC1=O [Example 80, (R)-4-((S)-8-(Benzo[d]isoxazol-3-ylmethoxy)-5-chloro-1-((2-oxopyrrolidin-1-yl)methyl)-3,4-dihydroisoquinolin-2(1H)-yl)-3-methyl-4-oxobutanoic acid] | 4.8 nM | 110 nM | 
11 | Cn1nnc(COc2ccc(Cl)c3c2[C@@H](CN2CCCC2=O)N(C(=O)[C@@H]2CCCC[C@@H]2C(=O)O)CC3)c1C(F)F [Example 82, (1S,2R)-2-((S)-5-Chloro-8-((5-(difluoromethyl)-1-methyl-1H-1,2,3-triazol-4-yl)methoxy)-1-((2-oxopyrrolidin-1-yl)methyl)-1,2,3,4-tetrahydroisoquinoline-2-carbonyl) cyclohexane-1-carboxylic acid] | 7.7 nM | 1.3 nM | 
12 | CC(C)c1nc(COc2ccc(Cl)c3c2[C@@H](CN2CCCC2=O)N(C(=O)[C@@H]2CCCC[C@@H]2C(=O)O)CC3)no1 [Example 83, (1S,2R)-2-((S)-5-Chloro-8-((5-isopropyl-1,2,4-oxadiazol-3-yl)methoxy)-1-((2-oxopyrrolidin-1-yl)methyl)-1,2,3,4-tetrahydroisoquinoline-2-carbonyl) cyclohexane-1-carboxylic acid] | 7.8 nM | 35 nM | 
13 | Cc1cnn(C[C@@H]2c3c(OCc4nnn(C)c4C(F)F)ccc(Cl)c3CCN2C(=O)[C@@H]2CCCC[C@@H]2C(=O)O)c1 [Example 84, (1S,2R)-2-((S)-5-chloro-8-((5-(difluoromethyl)-1-methyl-1H-1,2,3-triazol-4-yl)methoxy)-1-((4-methyl-1H-pyrazol-1-yl)methyl)-1,2,3,4-tetrahydroisoquinoline-2-carbonyl)cyclohexane-1-carboxylic acid] | 6.1 nM |  | 36 nM
14 | O=C(O)[C@H]1CCCC[C@H]1C(=O)N1CCc2c(Cl)ccc(OCc3cncnc3)c2[C@H]1CN1CCCC1=O [Example 85] | 9.9 nM | 34 nM | 
15 | Cn1nnc(COc2ccc(Cl)c3c2[C@@H](CN2CCCC2=O)N(C(=O)[C@@H]2CCC[C@@H]2C(=O)O)CC3)c1C(F)F [Example 86, (1S,2R)-2-((S)-5-Chloro-8-((5-(difluoromethyl)-1-methyl-1H-1,2,3-triazol-4-yl)methoxy)-1-((2-oxopyrrolidin-1-yl)methyl)-1,2,3,4-tetrahydroisoquinoline-2-carbonyl)cyclopentane-1-carboxylic acid] | 5 nM | 8.3 nM | 
16 | Cn1nnc(COc2ccc(Cl)c3c2[C@@H](CN2CCCC2=O)N(C(=O)[C@H]2CCC[C@H]2C(=O)O)CC3)c1C(F)F [Example 87, (1R,2S)-2-((S)-5-Chloro-8-((5-(difluoromethyl)-1-methyl-1H-1,2,3-triazol-4-yl)methoxy)-1-((2-oxopyrrolidin-1-yl)methyl)-1,2,3,4-tetrahydroisoquinoline-2-carbonyl)cyclopentane-1-carboxylic acid] | 150 nM | 300 nM | 
17 | O=C(O)[C@H]1CCCC[C@H]1C(=O)N1CCc2c(Cl)ccc(OCc3cccnn3)c2[C@H]1CN1CCCC1=O [Example 88, (1S,2R)-2-((S)-5-Chloro-1-((2-oxopyrrolidin-1-yl)methyl)-8-(pyridazin-3-ylmethoxy)-1,2,3,4-tetrahydroisoquinoline-2-carbonyl) cyclohexane-1-carboxylic acid] | 11 nM | 78 nM | 
18 | Cn1cnc2cc(COc3ccc(Cl)c4c3[C@@H](CN3CCCC3=O)N(C(=O)[C@@H]3CCCC[C@@H]3C(=O)O)CC4)cnc21 [Example 89, (1S,2R)-2-((S)-5-Chloro-8-((3-methyl-3H-imidazo[4,5-b]pyridin-6-yl)methoxy)-1-((2-oxopyrrolidin-1-yl)methyl)-1,2,3,4-tetrahydroisoquinoline-2-carbonyl) cyclohexane-1-carboxylic acid] | 8.2 nM | 5.1 nM | 
19 | Cn1nnc2cc(COc3ccc(Cl)c4c3[C@@H](CN3CCCC3=O)N(C(=O)[C@@H]3CCCC[C@@H]3C(=O)O)CC4)ccc21 [Example 90, (1S,2R)-2-((S)-5-Chloro-8-((1-methyl-1H-benzo [d][1,2,3]triazol-5-yl)methoxy)-1-((2-oxopyrrolidin-1-yl)methyl)-1,2,3,4-tetrahydroisoquinoline-2-carbonyl)cyclohexane-1-carboxylic acid] | 9.1 nM | 8.1 nM | 
20 | Cn1nnc(COc2ccc(Cl)c3c2[C@@H](CN2CCCC2=O)N(C(=O)[C@@H]2CCCC[C@]2(C)C(=O)O)CC3)c1C(F)F [Example 91, (1S,2R)-2-((S)-5-Chloro-8-((5-(difluoromethyl)-1-methyl-1H-1,2,3-triazol-4-yl)methoxy)-1-((2-oxopyrrolidin-1-yl)methyl)-1,2,3,4-tetrahydroisoquinoline-2-carbonyl)-1-methylcyclohexane-1-carboxylic acid] | 6.1 nM | 0.21 nM | 
21 | O=C(O)[C@H]1CCCC[C@H]1C(=O)N1CCc2c(Cl)ccc(OCc3cn4cccnc4n3)c2[C@H]1CN1CCCC1=O [Example 92, (1S,2R)-2-((S)-5-Chloro-8-(imidazo[1,2-a]pyrimidin-2-ylmethoxy)-1-((2-oxopyrrolidin-1-yl)methyl)-1,2,3,4-tetrahydroisoquinoline-2-carbonyl) cyclohexane-1-carboxylic acid] | 15 nM | 180 nM | 
22 | O=C(O)[C@H]1CCCC[C@H]1C(=O)N1CCc2c(Cl)ccc(OCc3noc4ncccc34)c2[C@H]1CN1CCCC1=O [Example 93, (1S,2R)-2-((S)-5-Chloro-8-(isoxazolo[5,4-b]pyridin-3-ylmethoxy)-1-((2-oxopyrrolidin-1-yl)methyl)-1,2,3,4-tetrahydroisoquinoline-2-carbonyl) cyclohexane-1-carboxylic acid] | 7.2 nM | 15 nM | 
